Results as given in article PMC11910330, “Familial Alzheimer’s disease mutations in amyloid precursor protein impair calcineurin signaling to NMDA receptors” (The Journal of Biological Chemistry, 2024).

Experiments:
GluN1A/GluN2A NMDARs = assay: Whole-cell recording of glutamate-evoked NMDAR currents in HEK 293 cells expressing GluN1A/GluN2A; assay type: cell-based
Description: HEK 293 cells (ATCC Cat# CRL-1573) were obtained at passage 37 and used for a maximum of six passages. Cell cultures were maintained in Dulbecco’s modified Eagle’s medium (DMEM) with 10% fetal bovine serum (Life Technologies, Inc.) and penicillin/streptomycin (P/S). For electrophysiology, cells were plated at low density (∼50,000 cells/ml) on 15-mm round glass coverslips in 12-well plates. Cells were transfected using the Ca^2+ phosphate method with 1 μg of each construct per coverslip. For control cells, 0.3 μg of pEGFP (GenBank U55762.1) was included as a transfection marker. Epifluorescence was used to confirm the expression of the corresponding APP family members and APP FAD mutants. For biochemistry, HEK 293 cells were plated at ∼50% confluence on 10 cm dishes. HEK 293 cells were transfected by the Ca^2+ phosphate method. For these experiments, 4 μg of each construct was used, with 1 μg of mCherry (GenBank AY678264.1) used as a transfection marker. Experiments were performed 24 h after transfection.
Twenty-four hours after transfection, HEK 293 cells were visually selected for recording by GFP epifluorescence. […] whole-cell recordings of NMDA receptor currents were obtained with a Multiclamp 700A amplifier (Molecular Devices) and digitized through a Digidata 1332A using Clampex 10.3 software. Patch pipettes (2–5 MΩ for HEK 293 cells; 3–6 MΩ for neurons) contained (in mM) the following: 140 Cs methanesulfonate, 10 Hepes, five ATP (Na salt), 5 MgCl2, and 0.2 EGTA + 0.01 CaCl2 or 10 BAPTA + 0.2 CaCl2 (pH 7.4). QX-314 (2 mM) was included in the pipette solution for neuronal recordings to ensure the block of voltage-gated Na^+ currents. The extracellular solution contained (in mM) 150 NaCl, 5 KCl, 1.8 CaCl2, 10 Hepes, 11.1 glucose, 0.1 glycine (pH 7.4) and flowed at a rate of 1 to 2 ml/min. For neuronal recordings, this solution was supplemented with tetrodotoxin (0.3 μM), NBQX (10 μM), and picrotoxin (100 μM), to block voltage-gated Na^+ channels, AMPA receptors, and GABA receptors, respectively. HEK cells were lifted from the coverslip after establishment of the whole-cell configuration, to speed solution exchange, and placed ∼20 μm from the mouth of a series of flow pipes, which were controlled by solenoid valves and moved into position by a piezoelectric bimorph. With this configuration, solution exchanges were accomplished within 10 to 12 ms as assessed by the rise time (20–80%) of whole-cell agonist-evoked current responses. Flow pipes were lowered to within ∼50 μm of the surface of the coverslip and placed ∼100 to 150 μm from the soma of the cell. Currents were digitized at 2 kHz and filtered at 1 kHz. Series resistance (90–95% HEK cells; 60–70% neurons) and whole-cell capacitance compensation were employed, and input resistance was routinely monitored by 5 mV hyperpolarizing jumps between agonist applications. Cells showing sudden shifts in these parameters were discarded. Experiments were performed at a holding potential of −60 mV at 20 °C. Currents were elicited by a 3 s (5 s for neurons) application of glutamate (1 mM) in the extracellular recording solution. Desensitization was quantified as the ratio of average current remaining in the last 50 ms of the agonist application to the peak current using Clampfit 10.3 software. […] Current density was calculated by dividing the peak current by the compensated whole-cell capacitance.

[1] = test system: human recombinant GST-CaN; assay: Peptide/CaN interaction assay (biotinylated peptides on streptavidin beads, GST-CaN pull-down, Western blot); assay type: binding; conditions: for Western blot data following CaN interaction with biotinylated peptides, (signal for each/signal for CaN standard) * 40%: biotinylated APP peptides, GST-CaN pull-down; for percent of CaN recovered (signal for each/signal for CaN standard * 40%): 10 μg N-terminally biotinylated peptide on streptavidin beads, 200 ng GST-CaN, 30 min, 4 °C, Western blot, mean (n=7; APP-17mer n=3)
From the text: Recombinant rabbit monoclonal to APP (clone Y188; Abcam cat# ab32136; 1:5000 dilution), rabbit polyclonal to APLP1 (Proteintech cat # 12305-2-AP; 1:1000 dilution), and rabbit polyclonal to APLP2 (Proteintech cat # 15041-1-A; 1:500 dilution) were used to detect native APP family members on western blots or recombinant GFP-tagged APP family members as validation (see Fig. S1). A horseradish peroxidase (HRP)-conjugated goat anti-rabbit antibody (Sigma-Aldrich Cat# 12-348; 1:10,000 dilution) was used as secondary antibody for these western blots, while an HRP-conjugated mouse monoclonal antibody to GFP (Invitrogen cat # MA 515256HRP; 1:1000 dilution) was used to independently verify the expression of GFP or GFP-tagged APP family members. A mouse monoclonal antibody CaN (BD Biosciences Cat# 556350; 1:1000 dilution) was used for the detection of native and recombinant CaN on western blots and for co-immunoprecipitation and peptide-based interaction assays experiments, while nonspecific mouse IgG (Thermo Fisher Scientific Cat# 02-6502) was used as a control. An HRP-conjugated goat anti-mouse antibody (Sigma-Aldrich Cat# 12-349; 1:10,000 dilution) […] was used as secondary antibody for these western blots, while HRP-conjugated protein G (Sigma-Aldrich cat # 18-161; 1:5000 dilution) was used for the secondary detection of CaN in co-immunoprecipitation experiments. A mouse monoclonal anti-Flag antibody (Sigma-Aldrich Cat# F1804) was used for co-immunoprecipitations of recombinant APP family members, while an HRP-conjugated version of this antibody (Sigma-Aldrich Cat# A8592; 1:1000) was used for the detection on western blots.
The N-terminally biotinylated AKAP79(330-357) and Ht31peptides were synthesized by Biomolecules Midwest and used as positive and negative controls for CaN interaction as previously described ([20]).
Either PBS with fresh 0.1% Tween-20 and 0.1% bovine serum albumin added or a modified IP buffer (150 mM NaCl, 10 mM Hepes; 5 mM EDTA; pH 7.4) with fresh 0.5% CHAPSO and 0.1% bovine serum albumin was used for these assays. […] Streptavidin-coated dynabeads (20 μl; Invitrogen cat # 65601) were washed and then incubated with 10 μg biotinylated peptides for 15 min at 4 °C in 200 μl of buffer. Beads were washed rapidly (400 μl; 3×) to remove unbound peptide and then incubated with 200 ng human recombinant GST-CaN in 200 μl buffer for 30 min at 4 °C. Following three washes (400 μl; 5 min each), complexes were eluted in 40 μl 2× Laemmli buffer, and samples were separated by SDS-PAGE and analyzed by Western blotting as above. Blots were probed with the mouse monoclonal anti-CaN antibody followed by anti-mouse HRP for secondary detection and visualized by enhanced chemiluminescence and digitally acquired as above. For each blot, the intensity of each band was normalized to that of from the GST-CaN standard (80 ng). As this standard represented 40% of the 200 ng input, the ratio was multiplied by 40 to achieve the percent of CaN recovered.

`O=C(O)CN(CC(=O)O)c1ccccc1OCCOc1ccccc1N(CC(=O)O)CC(=O)O` [BAPTA] was tested, and the “effect on NMDAR current amplitude (in words)” value (GluN1A/GluN2A NMDARs; 10 mM BAPTA in pipette, APP-expressing cells, within 1–3 min) was “increase in the amplitude of GluN1A/GluN2A currents”, the “effect on NMDAR desensitization (in words)” value (GluN1A/GluN2A NMDARs; 10 mM BAPTA in pipette, GFP controls and APP-expressing cells) was “did not appear to modify the degree of NMDAR desensitization” and the “effect on NMDAR current amplitude (in words)” value (GluN1A/GluN2A NMDARs; 10 mM BAPTA in pipette, GFP-expressing cells) was “declined in amplitude by a similar extent to that seen with low EGTA concentrations”.
In the case of “MAGPHTVIVIPGPHEE [T644P, biotinylated APP peptide incorporating the FAD mutation T644P]”, the “CaN binding relative to the APP (WT) peptide (in words)” value ([1]; Fig. 4B, FAD mutant peptides) is reported as “reliably reduced CaN binding”, the “Western blot data following CaN interaction with biotinylated peptides, (signal for each/signal for CaN standard) * 40%” value ([1]; mean of n = 6) is reported as 4.71% and the “Western blot data following CaN interaction with biotinylated peptides, (signal for each/signal for CaN standard) * 40%” value ([1]; replicate 1) is reported as 0.13%. For the same compound, the “Western blot data following CaN interaction with biotinylated peptides, (signal for each/signal for CaN standard) * 40%” value ([1]; replicate 2) was 8.45%, the “Western blot data following CaN interaction with biotinylated peptides, (signal for each/signal for CaN standard) * 40%” value ([1]; replicate 3) was 2.14% and the “Western blot data following CaN interaction with biotinylated peptides, (signal for each/signal for CaN standard) * 40%” value ([1]; replicate 4) was 4.28%. The “Western blot data following CaN interaction with biotinylated peptides, (signal for each/signal for CaN standard) * 40%” value ([1]; replicate 5) was 3.74% and the “Western blot data following CaN interaction with biotinylated peptides, (signal for each/signal for CaN standard) * 40%” value ([1]; replicate 6) was 9.51%.
For MAGPHTVIVISGPHEE [APLP2], the “CaN binding lower than the PVIVIT peptide” value ([1]; Fig. 1H) was about 30% and the “percent of CaN recovered (signal for each/signal for CaN standard * 40%)” value ([1]; Fig. 1H) was 42.75%.
MAGPHTVIVITGPHEE [APP] was tested, and the “CaN binding (in words)” value ([1]; Fig. 1H) was “nearly the same extent as the PVIVIT peptide” and the “percent of CaN recovered (signal for each/signal for CaN standard * 40%)” value ([1]; Fig. 1H) was 52.92%.
With cyclosporin A [CsA] the “effect on NMDAR desensitization (in words)” value (GluN1A/GluN2A NMDARs; CsA 1 μM, GFP-expressing cells, relative to untreated cells) was “desensitization appeared modestly enhanced” and the “ss/p ratio in APP-expressing cells (in words)” value (GluN1A/GluN2A NMDARs; CsA 1 μM, low intracellular EGTA) was “no longer different (and modestly elevated) compared to GFP-expressing cells”.
